In US20070009484A1, “Compositions and methods involving MDA-7 for the treatment of cancer” (Board of Regents, The University of Texas System, priority 2005, published 2007):
Marks after values point to notes of the source that are not given here. Peptide text beside a SMILES is read from it. * marks the point of attachment. Cbz = O=C(OCc1ccccc1)*; CH2F = FC*

Key:
[1] = tested on: MCF7/Her18 cells; assay: Prostaglandin E2 (PGE2) measurement; assay type: cell-based, human; details: 72-hour treatment, vectors MOI 2000 vp/cell, celecoxib 20 uM
Protocol: (§1) After a 72-hr incubation, 3 μl of arachidonic acid (1 mM) was added to the culture media to boost the PGE2 production for 30 minutes. The supernatant was collected and stored at −80° C. until PGE2 concentration was measured using an enzyme-linked immunoassay kit (Cayman Chemical, Ann Arbor, Mich.) according to the manufacturer's manual. The final results from the triplicated values were expressed as pg/ml.

[2] = tested on: MDA-MB-436 cells; assay: Prostaglandin E2 (PGE2) measurement; assay type: cell-based, human; details: 72-hour treatment, vectors MOI 1000 vp/cell, celecoxib 50 uM
Protocol: as §1

[3] = tested on: MCF7/Her18 cells; assay: Cell cycle and apoptosis assay (PI, Annexin V/FITC, TUNEL); assay type: cell-based, human
Source text: (§2) All the cultures were subconfluent at the time of harvest. Harvested cells were fixed with ice-cold 80% ethanol, stained with propidium iodide (PI) (Sigma, St. Louis, Mo.), and analyzed using a flow cytometer (FCM) (EPICS XL-MCL, Coulter, Miami, Fla.) as described previously. Cells floating in the media and trypsinized adherent cells were harvested and pelleted. The collected cells were washed, and then stained with Annexin V-fluorescein isothiocyanate (FITC)/PI using an Annexin V/FITC apoptosis detection kit (BD Biosciences, Franklin Lake, N.J.). The BrdU (5-bromo-2-deoxyuridine)/terminal deoxynucleotidyl transferase (TdT)-mediated 2′-deoxyuridine 5′-triphosphate (dUTP)-biotin nick end labeling (TUNEL) assay (APO-Direct, BD Biosciences, Franklin Lake, N.J.) was performed according to the manufacturer's protocol. Briefly, paraformaldehyde-fixed cells were washed and incubated with staining solution (10 μl of TdT reaction buffer, 0.75 μl of TdT enzyme, and 8 μl of FITC-dUTP) overnight. The following day, cells were rinsed and resuspended in 1 ml of PI/RNase solution. Following incubation in the dark for 30 minutes at room temperature, flow cytometry was performed to obtain the percentage of apoptotic cells. Cell cycles were analyzed with a program combined with the FCM (Multicycle, Phoenix Flow System, San Diego, Calif.).

[4] = tested on: MDA-MB-436 cells; assay: as above; assay type: cell-based, human
Source text: as §2

[5] = cited from earlier work
[6] = tested on: MDA-MB231 cells; assay: Cell viability by trypan blue exclusion assay; assay type: cell-based, human; details: for cell death (cytotoxicity) by cytokine protein: 30 ng/ml, 96 h
Protocol: (§3) MDA-MB231 and MDA-MB453 breast cancer lines were obtained from the America Type Culture Collection (ATCC, Manassas, Va.) and were maintained in DMEM (Hyclone, Inc., Logan, Utah) supplemented with 10% fetal bovine serum (Life Technologies, Inc.), 100 units/ml penicillin, 100 μg/ml streptomycin, 2 mM L-glutamine, and HEPES buffer (Life Technologies, Inc., Grand Island, N.Y.). The cells were screened routinely to verify lack of mycoplasma contamination and were used in the log phase of growth. […] Rabbit phospho-Stat3 (Tyr705) antibody was purchased from Cell Signaling Technology Inc. (Beverly, Mass.), β-Actin monoclonal antibody and terminal deoxynucleotidyl transferase-mediated dUTP-biotin nick-end labeling (TUNEL) kits were purchased from Oncogene Research Products (San Diego, Calif.), and all other primary and secondary antibodies were purchased from Santa Cruz Biotechnology (Santa Cruz, Calif.). Cell viability was analyzed by trypan blue exclusion assay. Cells were trypsinized and an aliquot suspended 1:1 volume with 0.4% trypan blue.
(§4) Full-length mda-7 cDNA was cloned into pCEP4 FLAG vector (Invitrogen, San Diego, Calif.) containing the CMV promoter. The plasmid was transfected into HEK 293 cells, and stable sub-clones were isolated using hygromycin (0.4 μg/ml).
(§5) The mda-7 gene was linked to an internal CMV-IE promoter, followed by an SV40 polyadenylation sequence. The same adenoviral vector containing the sequence for expression of luciferase (Ad-luc) was used as control virus. Cells were plated 1 day before infection.

[7] = tested on: MDA-MB453 cells; assay: Cell viability by trypan blue exclusion assay; assay type: cell-based, human; details: for cell death (cytotoxicity) by cytokine protein: 30 ng/ml, 96 h
Protocol: as §3, §4, §5

[8] = tested on: T47D cells; assay: Annexin V apoptosis assay; assay type: cell-based, human; details: T47D cells treated with Ad-mda7 2000 vp/cell
Protocol: Apoptosis was measured by TUNEL and Annexin V assays. […] Cell viability was determined by trypan-blue exclusion assay.

[9] = tested on: A549 human lung cancer cells; assay: Flow cytometry analysis of apoptosis (propidium iodide); assay type: cell-based; details: for percentage of apoptosis: 48 hrs
Protocol: (§6) Apoptosis of cells was measured by propidium iodide staining and FACS analysis. Cells were harvested, pelleted by centrifugation and resuspended in phosphate-buffered saline containing 50 μg/ml propidium iodide, 0.1% Triton X-100, and 0.1% sodium citrate and vortexed prior to FACS analysis (Becton-Dickenson FACScan, Mountain View, Calif.; FL-3 channel).

[10] = tested on: H460 human lung cancer cells; assay: as above; assay type: cell-based; details: for percentage of apoptosis: 48 hrs
Protocol: as §6

[11] = tested on: STAT3; assay: Phospho-STAT3 immunofluorescence assay; assay type: cell-based, human; details: MDA-MB231 and MDA-MB453 cells
Protocol: Cells growing in chamber slides were treated with human IL-24 protein in various concentrations (0-20 ng/ml) for 30 min. Cells were fixed with ethanol:acetic acid (9.5:0.5) and then stained with phospho-Stat3 primary antibody and FITC-labeled secondary antibody. The slides were analyzed using a Nikon fluorescence microscope.

[12] = tested on: T47D cells; assay: 3H-thymidine cell proliferation assay; assay type: cell-based, human; details: Taxotere 0.5-2 ng/mL, 3 days
Protocol: (§8) Cells were plated at 500-2000 cells/well in 96-well format for ^3H-thymidine incorporation-assays, or at 10^5-10^6 cells/well in a 6-well plate format for protein expression, trypan blue viability or apoptosis assays. In drug combination studies, drugs were added once just prior to addition of vectors and cells were continuously exposed to agents.
(§9) The cells were harvested using Trypsin/EDTA (GIBCO), collected on a Filter using a Packard Filtermate cell Harvester, and washed in deionized water and methanol following the manufacturer protocols. The filters were dried and analyzed using a Matrix 9600 (Packard).

[13] = tested on: MCF-7 cells; assay: 3H-thymidine cell proliferation assay; assay type: cell-based, human; details: Taxotere 0.5-2 ng/mL, 3 days
Protocol: as §8, §9

[14] = tested on: H1299 cells; assay: Cell viability assay (trypan blue exclusion); assay type: cell-based; details: Ad-mda7 1000 vp/cell; Bivacizumab 0.78, 1.56, 3,125 ug/ml; up to 72 hours
Protocol: Cells treated with PBS served as a control. Cells were harvested at various time points as listed in figures and subjected to cell viability assay as previously described (Saeki et al., 2000).
(§7) H1299 cells (2×10^5/well) and HUVECs (3×10^5/well) were seeded in six-well plates. […] At 48 hours and […] after the treatment, cells were trypsinized and analyzed for trypan blue cell exclusion assay.

[15] = tested on: HUVECs; assay: Cell viability assay (trypan blue exclusion); assay type: cell-based, human; details: Ad-mda7 1000 vp/cell; Bivacizumab 0.78, 1.56, 3,125 ug/ml; 48 h and 72 h
Protocol: as §7

[16] = tested on: HUVECs; assay: Endothelial cell proliferation with conditioned medium from treated H1299 cells; assay type: cell-based, human; details: medium collected at 48 h; compared to PBS and Ad-luc
Protocol: For analysis of the effect of conditioned medium from Ad-mda7-treated H1299 on endothelial cell proliferation, human umbilical vein endothelial cells (HUVECs) were seeded in six-well plates (3×10^5 cells/well). […] HUVECs were incubated for an additional 3 days and later harvested and subjected to cell viability assay (Ramesh et al., 2003; Mhashilkar et al., 2001).

[17] = tested on: H1299 tumors in nude mice; assay: Subcutaneous H1299 xenograft; assay type: in vivo, mouse; details: vector 1×10^10 vp intratumorally, Avastin 5 mg/Kg (100 ug/body) i.p., twice a week, 28 days
Protocol: Bivacizumab (100 ug/body) was given i.p. twice a week. Animals were weighed weekly and tumor growth was measured thrice a week as described previously (Saeki et al., 2002; Ramesh et al., 2003). At 28 days after the first treatment, all animals were killed via CO2 inhalation, and tumors were collected for histopathological examination and Western blot analysis. Two different sets of experiments were done.

[18] = 48 h, two doses of 17AAG, combination compared with Ad-luc and 17AAG
[19] = 30 ng/ml IL-24 with IL-10 0-300 ng/ml

Cc1ccc(-c2cc(C(F)(F)F)nn2-c2ccc(S(N)(=O)=O)cc2)cc1 [Celecoxib, 4-[5-(4-methylphenyl)-3-(trifluoromethyl)-1H-pyrazol-1-yl]benzenesulfonamide]
Prostaglandin E2 production [1]: 16.7^§ pg/ml | Prostaglandin E2 production [2]: 116.7^§ pg/ml | cell cycle effect ([3]; 72-hour treatment): blocked more cells at the G1 checkpoint than Ad-mda7 | apoptosis (Annexin V/FITC, TUNEL) ([3]; 72-hr treatment): promoted apoptosis | cell cycle effect ([4]; 72-hour treatment): blocked more cells at the G1 checkpoint than Ad-mda7 | apoptosis (Annexin V/FITC, TUNEL) ([4]; 72-hr treatment): promoted apoptosis | effective half-life ([5]; fasted conditions): roughly 11 hours | time of peak plasma levels after an oral dose ([5]; in vivo): roughly 3 hours | delay of plasma levels with a high fat meal ([5]; in vivo): 1 to 2 h | increase in total absorption with a high fat meal ([5]; in vivo): 10-20% | dose excreted in feces ([5]; single dose): 57% | dose excreted in the urine ([5]; single dose): 27%

IL-22: IL-10 family cytokine
cell death (cytotoxicity) by cytokine protein [6]: none of these induced cell death above background levels | cell death (cytotoxicity) by cytokine protein [7]: none of these induced cell death above background levels

Cc1onc(-c2ccccc2)c1-c1ccc(S(N)(=O)=O)cc1 [valdecoxib, 4-(5-methyl-3-phenyl-4-isoxazolyl)benzenesulfonamide]
active metabolite concentration in human plasma relative to parent ([5]; human plasma): about 10% | time of peak plasma levels after an oral dose ([5]; in vivo): about 3 hours | delay of plasma levels with a high fat meal ([5]; in vivo): 1 to 2 h

COC(=O)C[C@H](NC(=O)[C@H](C)NC(=O)[C@@H](NC(=O)OCc1ccccc1)C(C)C)C(=O)CF [ZVAD] (Cbz-Val-Ala-Asp(OMe)-CH2F)
reduction of Ad-mda7 induced apoptosis [8]: 40%

CS(=O)(=O)c1ccc(C2=C(c3ccccc3)C(=O)OC2)cc1 [rofecoxib, 4-[4-(methylsulfonyl)phenyl]-3-phenyl-2-(5H)furanone]
time of peak plasma levels after an oral dose ([5]; in vivo): 2 to 3 h | delay of plasma levels with a high fat meal ([5]; in vivo): 1 to 2 h

COC1=C2C[C@@H](C)C[C@H](OC)[C@H](O)[C@@H](C)/C=C(\C)[C@H](OC(N)=O)[C@@H](OC)/C=C\C=C(/C)C(=O)NC(=CC1=O)C2=O [GA, Geldanamycin]
percentage of apoptosis ([9]; GA 50 nm): 6.3% | percentage of apoptosis ([9]; GA 150 nm): 23.6% | percentage of apoptosis ([10]; GA 50 nm): 5.7% | percentage of apoptosis ([10]; GA 150 nm): 21%

C=CCNC1=C2C[C@@H](C)C[C@H](OC)[C@H](O)[C@@H](C)/C=C(\C)[C@H](OC(N)=O)[C@@H](OC)/C=C\C=C(/C)C(=O)NC(=CC1=O)C2=O [17AAG, 17-allyl-aminogeldanamycin]
cell death / apoptosis with 17AAG [9, 18]: resulted in cell death | cell death / apoptosis with 17AAG [10, 18]: resulted in cell death

IL-10: recombinant IL-10
effect on IL-24-protein-induced killing [6, 19]: significantly inhibited IL-24-protein-induced killing in a dose-dependent manner | cell death (cytotoxicity) by cytokine protein [6]: none of these induced cell death above background levels | effect on IL-24-protein-induced killing [7, 19]: significantly inhibited IL-24-protein-induced killing in a dose-dependent manner | cell death (cytotoxicity) by cytokine protein [7]: none of these induced cell death above background levels | STAT3 activation (phospho-STAT3) [11]: able to activate STAT3

CC(=O)O[C@@]12CO[C@@H]1C[C@H](O)[C@@]1(C)C(=O)[C@H](O)C3=C(C)[C@@H](OC(=O)[C@H](O)[C@@H](NC(=O)OC(C)(C)C)c4ccccc4)C[C@@](O)([C@@H](OC(=O)c4ccccc4)[C@H]21)C3(C)C [Taxotere, docetaxel]
inhibition of thymidine incorporation [12]: approximately 40% | inhibition of thymidine incorporation [13]: approximately 40%

Bevacizumab: VEGF inhibitor, monoclonal antibody that specifically binds VEGF
cell viability / toxicity [14]: did not show harmful effect | cell viability / toxicity [15]: inhibited HUVEC viability | HUVEC proliferation with conditioned medium from treated H1299 cells [16]: significantly inhibited HUVEC proliferation | tumor growth [17]: Significant inhibition of tumor growth

B1: IL-24: purified human IL-24 (MDA-7) protein from 293-IL24 cell supernatant (protein)
chain: QEFHFGPCQVKGVVPQKLWEAFWAVKDTMQAQDNITSARLLQQEVLQNVSDAESCYLVHTLLEFYLKTVFKNYHNRTVEVRTLKSFSTLANNFVLIVSQLQPSQENEMFSIRDSAHRRFLLFRRAFKQLDVEAALTKALGEVDILLTWMQKFYKL
cell death (cytotoxicity) by cytokine protein [6]: induction of significant cell death | cell death (cytotoxicity) by cytokine protein [7]: induction of significant cell death | STAT3 activation (phospho-STAT3) [11]: able to activate STAT3

B2: IL-19: IL-10 family cytokine (protein, UniProt Q9UHD0 25-177, looked up)
Interleukin-19: LRRCLISTDMHHIEESFQEIKRAIQAKDTFPNVTILSTLETLQIIKPLDVCCVTKNLLAFYVDRVFKDHQEPNPKILRKISSIANSFLYMQKTLRQCQEQRQCHCRQEATNATRVIHDNYDQLEVHAAAIKSLGELDVFLAWINKNHEVMFSA
cell death (cytotoxicity) by cytokine protein [6]: none of these induced cell death above background levels | cell death (cytotoxicity) by cytokine protein [7]: none of these induced cell death above background levels
